The source of these data is PMC6016474, “Structural and functional determination of homologs of the Mycobacterium tuberculosis N-acetylglucosamine-6-phosphate deacetylase (NagA)” (The Journal of Biological Chemistry, 2018).

Molecules are shown by their SMILES.

Assay [1] addresses T1, MSNagA (Mycolicibacterium smegmatis, UniProt A0QU89, D267A).
T1 construct: gene nagA; full-length, 385 residues, N-terminal His6 tag; expressed in M. smegmatis mc2 4517 (pYUB1062) for wild-type rows, in E. coli (pET28a) for D267A
T1 sequence (A0QU89 1-385 D267A): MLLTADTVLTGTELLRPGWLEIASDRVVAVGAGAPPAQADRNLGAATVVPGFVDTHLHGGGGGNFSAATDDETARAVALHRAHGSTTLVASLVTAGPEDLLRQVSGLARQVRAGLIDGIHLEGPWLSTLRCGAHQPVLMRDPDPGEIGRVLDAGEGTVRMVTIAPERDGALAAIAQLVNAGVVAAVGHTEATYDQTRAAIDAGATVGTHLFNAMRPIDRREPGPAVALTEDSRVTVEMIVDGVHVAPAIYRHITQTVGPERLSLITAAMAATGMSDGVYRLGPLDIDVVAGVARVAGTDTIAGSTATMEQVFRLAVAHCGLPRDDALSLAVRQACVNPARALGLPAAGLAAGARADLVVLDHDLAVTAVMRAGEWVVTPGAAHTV
The assay is described as follows: X-ray co-crystal structure, […] Å. Format: binding. The conditions noted are these: active site of chain A at dimer interface, Zn and Cd modelled, ligand occupancy 0.75.

Assay [2] deals with T2, MMNagA (Mycobacterium marinum, UniProt B2HDT2).
T2 construct: gene nagA; full-length from gDNA, N-terminal His6 tag (pET28a, NdeI/HindIII), E. coli BL21(DE3) with Mtb GroES chaperone
T2 sequence (B2HDT2 entry or part of it): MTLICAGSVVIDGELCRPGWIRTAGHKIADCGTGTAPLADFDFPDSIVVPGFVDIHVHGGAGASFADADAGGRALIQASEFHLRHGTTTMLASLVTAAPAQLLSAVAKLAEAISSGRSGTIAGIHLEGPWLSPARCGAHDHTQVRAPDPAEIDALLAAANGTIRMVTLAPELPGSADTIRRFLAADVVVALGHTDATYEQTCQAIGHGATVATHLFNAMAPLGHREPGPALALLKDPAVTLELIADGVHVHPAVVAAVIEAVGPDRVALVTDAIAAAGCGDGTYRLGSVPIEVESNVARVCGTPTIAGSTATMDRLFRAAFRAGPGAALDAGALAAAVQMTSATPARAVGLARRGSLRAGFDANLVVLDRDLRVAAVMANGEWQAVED
The note with it: read-out: MST Kd; binder.

The term Kd denotes the equilibrium constant for the complex coming apart. `CC(=O)N[C@H]1C(O)O[C@H](COP(=O)(O)O)[C@@H](O)[C@@H]1O` (stereo partly drawn) [GlcNAc6P]: the “X-ray co-crystal structure, 2.0 Å” value in assay [1] was 6FV4 for the GlcNAc6P-MSNagA co-crystal structure. Besides, the Kd in assay [2] was found to be 1200 ± 50 µM. Consider `CC(=O)N[C@@H]1C(O)O[C@H](COP(=O)(O)O)[C@@H](O)[C@@H]1O` (stereo partly drawn) [ManNAc6P], for which the Kd in assay [2] worked out at 3800 ± 300 µM.
